Experiment [1] has as its system INS1 cells expressing MitoTimer. As to the kind of experiment: MitoTimer red/green ratio high-content screen and dose-response. The experiment is classed as cell-based. The method, then:
INS1 cells were stably transduced with MitoTimer by lentiviral infection and were tested using known modulators of autophagy. The paradigm used was based on previous reports showing that the shift in emission from green to red occurs within 18 hours. Assuming that this shift is constant, changes in red FI occurring during this frame of time can result from an effect on MitoTimer clearance and not from an effect on synthesis. The paradigm employed consisted therefore of a treatment lasting 18 hours followed by imaging.
Stimulators of mitochondrial clearance were defined as those inducing a red-to-green FI below −3 and a red intensity below −5.1. Suppressors of mitochondrial clearance were defined as those inducing a red-to-green FI above 10.34 and a red intensity above 4.5. […] Compounds displaying high green FI (above 15) were also discarded to prevent the inclusion of autofluorescent molecules. Only molecules that filled the above criteria in both duplicates were further tested.
The screen was performed during 8 sessions in Weizmann institute. All compounds were tested at a concentration of 10 μM, in duplicates. The images were processed to reduce background (using Metamorph software) and then analyzed in GeneData software.
We subjected those compounds to a dose-response assay (concentrations: 10, 3.33, 1.11, 0.37 and 0.12 μM).
MitoTimer expressing INS1 cells generation, Cell Culture and treatments. MitoTimer-reporter was cloned into the pHAGE2 lenti-vector under the full-length EF1-alpha promoter to obtain constitutive expression. For the HCS, INS1 cells were infected with lentivirus carrying mitochondrial complex-I-targeted-MitoTimer plasmid. Highly expressing cells were selected by high speed fluorescence activated cell sorter (SY3200 cell sorter, Synergy, iCyt) and kept by the addition of puromycin (1 mg . L-1) in the cell media. Cells were thawed before each experiment, and MitoTimer expression checked through fluorescence.
High-Content Screening. […] HCS assay was developed at the Drug Discovery Unit, INCPM, Weizmann Institute of Science. […] Briefly, cells were treated with 10 uM of each compounds for 18 h and imaged in two wavelengths (FITC—excitation […], emission 520/35 nm and TRITC—excitation 543/22 nm, emission 593/40 nm) at ImageXpress Micro High-Content Imaging System/Molecular Devices. Rapamycin 100 nM was used as a control. In each cell plate, the neutral (DMSO) and positive control (Rapamycin) were repeated in 16 replicates while the treatments were performed in duplicates. Each plate was replicated and only hits found in the 2 independent plates were considered. Two fields of each well were analyzed, what normally allowed the analysis of 20-40 cells per condition. MitoTimer red/green ratio for every cell was done in MetaXpress. […] The compounds which affected MitoTimer red/green ratio in a dose response, ranging from […], were classified as a hit.
Individual cells were identified using the red channel, and red and green MitoTimer fluorescence were analyzed and ratio determined per cell.

Experiment [2] deals with INS1 cells expressing mCherry-GFP. In words: mCherry-GFP-Fis1101-152 determination of mitophagy. Format: cell-based. From the text: To corroborate the increase in mitochondrial clearance, we determined mitophagy by testing the compounds in INS1 cells expressing mCherry-GFP, a mitochondrial probe that emits green and red fluorescence under physiologic pH but red fluorescence only under acidic pH (such as that occurring in autolysosomes) and is therefore used for quantifying mitophagy. Unlike MitoTimer, which captures the accumulating effect of mitochondrial turnover, mCherry-GFP captures mitophagy at the time that it occurs. Since the timing of the induction of mitophagy by the hits was not known, we did a time-lapse. The cells were treated with the hits for 2, 8 and 18 hours. While after 2 hours and 18 hours, the molecules tended to increase the number of mitochondria inside autophagosomes (data not shown), only after 8 hours was this increase significant.
mCherry-GFP-Fis1101-152 determination of mitophagy. INS1 cells were seeded into 4 compartment […]™ glass bottom cell culture dishes at a density of 2*10^4 cells/compartment. After 48 hours cells were transduced with an adenoviral construct encoding the fluorescent mitophagy reporter mCherry-GFP-Fis1101-152 for 24 hours. A media change containing the indicated treatment concentration or 0.1% DMSO as vehicle control was performed 8 hours before the imaging session. Imaging was performed using a 63× Plan Neofluar objective and the Airyscan module of a Zeiss LSM880 confocal microscope. 25 visual fields containing 59-85 cells in total were imaged per condition. The experiment was repeated three times independently. Image analysis was performed with FIJI ImageJ 1.51p and CellProfiler 2.2.0 rev ac0529e. Briefly, individual cells were cropped and background was subtracted using a median filter assisted processing method (Dunn, K. W., Kamocka, M. M. McDonald, J. H. (2011) A practical guide to evaluating colocalization in biological microscopy. Am. J. Physiol. Cell Physiol. 300, C723-C742). Ratios of red/green fluorescence channels were computed and mitophagy positive structures were recognized based on a lower ratio cut-off of 2.5 of red over green. Mitophagy events per cell were determined by the following formula. […]
Data were normalized to DMSO controls to account for day to day variation. […] Significant treatment differences were determined using One-way ANOVA and Tukey post-hoc analysis. […]
The impact of the hits on mitochondrial turnover was further confirmed by a mitophagy-specific assay, a protein with a tandem mCherry-GFP tag attached to the localization signal of the protein FIS at the OMM. […] When mitochondria enter the lysosomes, the GFP fluorescence is quenched, the remaining red fluorescence is seen as red puncta, representing the undergoing mitophagy events.

Experiment [3] deals with Mitochondrial complex I. As to the kind of experiment: Complex I activity assay. As to conditions: mitochondria from INS1 cells treated with 25 uM. The experiment is classed as biochemical. The procedure:
Complex I Activity assay. Mitochondrial complex I enzyme activity was measured using Abcam's complex I enzyme activity microplate assay Kit (ab109721) by following the oxidation of reduced nicotinamide adenine dinucleotide (NADH) to oxidized NAD+ and the simultaneous reduction of a dye which leads to increased absorbance at OD=450 nm.

For experiment [4], the system named is INS1 cells. In words: Mitochondrial morphology (aspect ratio, circularity). As to conditions: 25 uM, 24 h. The experiment is classed as cell-based. The method, then:
INS1 cells were treated with SPB08007 (25 uM) or DMSO (0.1%) for 24 h. Mitochondria were stained with Mitotracker Green and TMRE (images represented in FIG. 10). MTG fluorescence was used to calculate Aspect Ratio (AR) (FIG. 16A) and circularity (FIG. 16B) of mitochondrial structures.

SMILES strings stand for the structures.

Consider `CC(=O)N/C(=C\c1sc2ccccc2c1C)C(=O)O` [SPB08007], for which the “red/green MitoTimer ratio” value in experiment [1] (10 uM, INS1 cells) is on record as “reduced”. In addition, the MitoTimer green readout result in experiment [1] (50 uM dose) is on record as “increase”. Besides, in experiment [1] (50 uM dose, 18 h, vs DMSO), the “maximum reduction on the ratio index (MitoTimer red/green)” value came to 40%. In addition, in experiment [1] (INS1 cells, 18 h), the “optimal dose for stimulating a reduction in red-to-green FI” value is 25 µM. In addition, in experiment [1] (INS1 cells, 18 h, dose-response), the “activity (MitoTimer red-to-green FI, Z-score vs DMSO)” value was −3.018. In experiment [1] (Rattus norvegicus, INS1 cells, 18 h, dose-response, read-out: qEC50), the EC50 was determined as 49 µM. Also, the “time of peak formation of acidic puncta” value in experiment [2] (25 uM) is 8 h. For the same compound, the “number of acidic puncta (mitophagy events per cell)” value in experiment [2] (25 uM, 8 h, vs DMSO) was “significantly increased”. The “number of mitophagy events at 18 h” value in experiment [2] (25 uM, 18 h) is reported as “returned to control levels”. In addition, the “number of red fluorescent dots in acidic vesicles (mitophagy)” value in experiment [2] (8 hours) is recorded as “increased”. Also, in experiment [3], the “mitochondrial Complex I activity” value was “two-and-a-half-fold increase”. Also, the mitochondrial morphology result in experiment [4] is listed as “does not alter”.
